The values that follow come from patent US5340925A, “Normal human growth regulatory receptor for TGF-β” (Oncogen, priority 1992, dated 1994).

Where two headings read alike, the source gives them in different places.

Broadly, the Kd is the equilibrium constant for the complex coming apart.

Test [1] has as its target T1, HEPM cell-surface receptors for TGF-β (Homo sapiens, UniProt Q03167).
T1 construct: endogenous in cells; host or cells: HEPM (human embryonic palatal mesenchyme) cells, intact monolayers
T1 sequence (Q03167 21-851): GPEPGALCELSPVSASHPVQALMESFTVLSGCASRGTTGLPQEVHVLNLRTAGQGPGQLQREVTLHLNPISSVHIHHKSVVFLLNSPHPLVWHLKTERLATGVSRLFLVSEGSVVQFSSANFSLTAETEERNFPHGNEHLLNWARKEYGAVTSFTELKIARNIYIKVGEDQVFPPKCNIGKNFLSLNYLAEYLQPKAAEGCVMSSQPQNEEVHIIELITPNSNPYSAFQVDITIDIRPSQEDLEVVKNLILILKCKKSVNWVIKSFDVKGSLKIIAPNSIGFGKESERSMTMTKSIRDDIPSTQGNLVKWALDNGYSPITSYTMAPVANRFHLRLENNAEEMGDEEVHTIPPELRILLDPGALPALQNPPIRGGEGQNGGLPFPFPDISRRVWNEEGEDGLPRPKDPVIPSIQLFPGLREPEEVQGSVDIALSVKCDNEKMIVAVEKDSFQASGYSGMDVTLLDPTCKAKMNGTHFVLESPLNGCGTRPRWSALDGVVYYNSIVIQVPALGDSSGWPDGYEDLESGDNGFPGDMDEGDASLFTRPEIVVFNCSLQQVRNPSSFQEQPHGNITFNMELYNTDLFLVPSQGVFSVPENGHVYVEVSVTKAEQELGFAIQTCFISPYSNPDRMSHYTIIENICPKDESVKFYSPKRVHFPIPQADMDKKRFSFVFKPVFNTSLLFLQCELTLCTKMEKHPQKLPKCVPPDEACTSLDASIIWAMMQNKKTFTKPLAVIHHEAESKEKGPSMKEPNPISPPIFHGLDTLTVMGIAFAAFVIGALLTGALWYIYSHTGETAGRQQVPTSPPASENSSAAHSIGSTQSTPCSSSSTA
As to the kind of experiment: Radioreceptor assay: [125I]-iodo-TGF-β1 in competition with unlabeled TGF-β1, Scatchard analysis. It is filed as binding. The note with it: for Kd: untreated HEPM cells, Scatchard two-site model. As to the method: (§1) HEPM cells were grown to confluence (1×10^5 cells/well) in 24-well Costar tissue culture plates. Prior to the binding assay, cells were pre-incubated in serum-free growth medium at 37° C. for 4 hours to allow for the dissociation of TGF-β from occupied cells surface receptors. The resulting monolayers were washed 2 times in binding buffer (Dulbecco's MEM+0.1% BSA+25 mM HEPES). 250 μl of binding buffer containing 0.5 μg/ml [^125 I]-iodoTGF-β1, (specific activity of 100 μCi/μg) together with increasing amounts of unlabeled TGF-β1 were added to duplicate wells. Steady state binding was carried out at 4° C. for 3 hours. After incubation cells were washed 3 times with cold binding buffer and solubilized in 200 μl of Triton solution (20 mM HEPES, 1% Triton X-100, 10% glycerol, 0.01% BSA, pH 7.4). Radioactivity was determined using a gamma spectrometer. Non-specific binding was determined in the presence of a 1,000-fold molar excess unlabeled TGF-β1.
(§2) The radioreceptor assay described in Materials and Methods was used to characterize the affinity and number of cell-surface receptors for TGF-β on HEPM cells. Specific binding of [^125 I]-iodo-TGF-βin these assays was 20% of the total radioligand present. […] Half-maximal displacement of radioligand occurred at 100 pM (2.6 ng/ml) unlabeled TGF-β1. Competitive binding data were plotted according to the method of Scatchard (Scatchard, et al., 1947, Ann. NY Acad Sci 51:660-672) and the results are presented in FIG. 5. A distinctly curvilinear isotherm was obtained indicating the presence of at least two classes of binding sites on HEPM cells. […] Quantitative analysis determined that HEPM cells contain a total of 287,000 TGF-β receptors per cell (55,400 high affinity and 231,600 low affinity sites).

In test [2] the test system is HEPM cell-surface receptors for TGF-β. Described as above. It is filed as binding, human. The note with it: comparison of growth stimulation and receptor occupancy, FIG. 6. How it is done: as §1, §2
Test [3] has as its system TGF-β receptor on HEPM cells. Kind of test: TGF-β receptor down-regulation in TGF-β1 treated HEPM cells, assessed by radioreceptor assay. The note with it: for Kd: HEPM cells treated 18 hours with 100 pM TGF-β1. It is filed as cell-based, human. How it is done:
as §1
Briefly, HEPM cells were treated with 100pM TGF-β1, for 18 hours, washed with serum-free medium, and incubated in fresh serum-free medium for 60 minutes to allow for the disassociation of residually bound TGF-β1. The radioreceptor assay described in Materials and Methods was used to assess the extent of receptor down-regulation in the treated cells relative to untreated control cells. […] The combined total receptor down-regulation observed was 57%.

A further test has as its system HEPM cells. As to the kind of experiment: Growth stimulation assay: incorporation of 5-[125I]iodo-2'-deoxyuridine into DNA of quiescent HEPM cells. It is filed as cell-based, human. The note with it: 66 h + 6 h radionuclide label. How it is done: FIGS. 1(A) and 1(B) Bioactivity of TGF-β on HEPM cells: incorporation of radionuclide into DNA. Results are presented as percent stimulation vs the picomolar (pM) concentration of TGF-β. Percent stimulation was calculated as follows: treated (cpm)-untreated (cpm)/untreated (cpm) x 100. Panel A: TGF-β1, treatment. Panel B: TGF-β2 treatment.
HEPM cells (5,000 cells/50 μl ) were subcultured in 96-well tissue culture plates (Falcon 30072) in growth medium comprising minimal essential medium (Gibco, Grand Island, N.Y.) supplemented with 10% heat-inactivated fetal bovine serum, 600 μg/ml L-glutamine, 500 μg/ml penicillin and 500 μg/ml streptomycin for a 24-hour period at 37° C. in a humidified 5% CO2 /95% air atosphere. A nondividing, quiescent state of growth was achieved by subsequent incubation for 48 hours in growth medium supplemented with 0.5% fetal bovine serum. Quiescent cells were then stimulated to proliferate by the addition of fetal bovine serum (10 μl ) and test samples of TGF-β1, or TGF-β2 (50 μl). The cells were incubated an additional 66 hours at 37° C. […] The amount of cell growth was measured by the amount of radionuclide incorporated into the DNA of actively growing cells.

The mark [4] stands for this setting: 100 pM TGF-β1, 18 hours, vs control cells.

For the substance “TGF-β1: Transforming growth factor-Beta type 1; two identical disulfide linked subunits having molecular weights of 13,000; recombinant material used”, in test [1] (unlabeled TGF-β1 vs [125I]-iodo-TGF-β1, 4° C., 3 hours), the “half-maximal displacement of radioligand” value is 2.6 ng/mL. In addition, the IC50 in test [1] (unlabeled TGF-β1 vs [125I]-iodo-TGF-β1, 4° C., 3 hours, read-out: half-maximal displacement of radioligand / half-maximal receptor occupancy) was 0.1 nM. The Kd in test [1] (read-out: kd, high-affinity (low capacity) site) was 0.058 nM. The Kd in test [1] (read-out: kd, low-affinity (high capacity) site) amounted to 0.898 nM. The “receptors occupied when full biological response is obtained” value in test [2] is reported as 20%. Besides, in test [3] (100 pM TGF-β1, 18 hours), the “high affinity binding sites in treated cells” value was 14,000 sites/cell and the “low affinity binding sites in treated cells” value is 108,800 sites/cell. In test [3] (setting [4]), the “combined total receptor down-regulation” value amounted to 57%, the “down-regulation of the high affinity binding sites” value worked out at 74% and the “down-regulation of the low affinity binding sites” value amounted to 53%. Also, the Kd in test [3] (read-out: kd, high affinity binding sites) came out at 0.04 nM. Further, in test [3] (read-out: kd, low affinity binding sites), the Kd was found to be 0.974 nM. The “ED50 in stimulating the proliferation of HEPM cells (half-maximal growth stimulation)” value in the test on HEPM cells is 0.005 nM.
